Measured values: ChEMBL document CHEMBL1151180, “Madhucosides A and B, protobassic acid glycosides from Madhuca indica with inhibitory activity on free radical release from phagocytes” (J Nat Prod, 2004)
≈ marks a conversion by molar mass, not a printed value.

Experiments:
Neutrophil = test: Inhibition of hypochlorous production in PMA-stimulated human neutrophils by luminol-enhanced chemiluminescence assay; type: functional, cell-based
[1] = Inhibition of superoxide production in PMNCs at 200 ug/mL by NBT reduction assay; type: functional
[2] = Inhibition of superoxide production in PMNCs by NBT reduction assay; type: functional

Structure (SMILES) | IC50 (Neutrophil) | inhibition at 200 µg/mL [1] | IC50 [2]
C[C@@H]1O[C@@H](O[C@H]2[C@H](O)[C@@H](O[C@@H]3OC[C@@H](O)[C@H](O)[C@H]3O)[C@H](O[C@@H]3[C@@H](O)[C@H](C)O[C@@H](O[C@H]4[C@H](OC(=O)[C@]56CCC(C)(C)C[C@@H]5C5=CC[C@@H]7[C@@]8(C)C[C@H](O)[C@H](O)[C@@](C)(CO[C@@H]9O[C@H](CO)[C@@H](O)[C@H](O)[C@H]9O[C@@H]9OC[C@](O)(CO)[C@H]9O)[C@@H]8[C@H](O)C[C@@]7(C)[C@]5(C)CC6)OC[C@H](O)[C@@H]4O)[C@@H]3O)O[C@@H]2CO)[C@H](O)[C@H](O)[C@H]1O | 144 µg/mL | 16% | 
CC(C)=C[C@H]1C[C@](C)(O)[C@H]2[C@H]3CC[C@@H]4[C@@]5(C)CC[C@H](O[C@@H]6O[C@H](CO)[C@@H](O)[C@H](O[C@@H]7O[C@H](CO)[C@@H](O)[C@H](O)[C@H]7O)[C@H]6O[C@@H]6O[C@@H](CO)[C@H](O)[C@H]6O)C(C)(C)[C@@H]5CC[C@@]4(C)[C@@]34CO[C@@]2(C4)O1 [BACOSIDE A3] | 19.8 µg/mL |  | 
O=c1c(O)c(-c2ccc(O)c(O)c2)oc2cc(O)cc(O)c12 [QUERCETIN] |  |  | 111 µg/mL (≈ 367 µM)
O=C1O[C@H]([C@@H](O)CO)C(O)=C1O [ASCORBIC ACID] |  |  | 14.1 µg/mL (≈ 80.1 µM)
